Source: patent publication US7659251B2, “Ligand for G-protein coupled receptor FPRL2” (priority 2004, dated 2010)

Tests used:
FPRL2 [1] = target: T1, FPRL2 (Homo sapiens, UniProt P25089); experiment: Aequorin-based assay on CHO-K1 cells expressing FPRL2, apoaequorin and Galpha16; format: cell-based; design: expressed in transfected cells; host or cells: CHO-K1 (with or without Galpha16 and apoaequorin); settings: for concentrations required to activate FPRL2 (calcium): FPRL2-expressing CHO-K1 cells
T1 sequence (P25089 1-353): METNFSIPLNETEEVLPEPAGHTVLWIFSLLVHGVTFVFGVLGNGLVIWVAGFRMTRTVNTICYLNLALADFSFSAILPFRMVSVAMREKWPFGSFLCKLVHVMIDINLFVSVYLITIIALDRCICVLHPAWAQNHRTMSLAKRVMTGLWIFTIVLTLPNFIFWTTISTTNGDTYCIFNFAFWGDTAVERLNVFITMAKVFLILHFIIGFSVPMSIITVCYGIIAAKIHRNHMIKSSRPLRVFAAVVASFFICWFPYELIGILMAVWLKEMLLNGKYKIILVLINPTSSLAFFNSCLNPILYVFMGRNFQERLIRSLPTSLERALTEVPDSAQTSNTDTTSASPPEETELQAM
Description: Briefly, FPRL2 polypeptide-expressing clones are transfected to coexpress mitochondrial apoaequorin and Gα16. Cells are incubated with 5 μM Coelenterazine H (Molecular Probes) for 4 hours at room temperature, washed in DMEM-F12 culture medium and resuspended at a concentration of 0.5×10^6 cells/ml. Cells are then mixed with test agonist molecules and light emission by the aequorin is recorded with a luminometer for 30 sec. Results are expressed as Relative Light Units (RLU). Controls include assays using membranes isolated from cells not expressing FPRL2 polypeptide (mock transfected), in order to exclude possible non-specific effects of the candidate compound.
FPRL2 expressing clones have been obtained by transfection of CHO-K1 cells to coexpressing mitochondrial apoaequorin and Galpha16, limiting dilution and selection by northern blotting. Positive clones were used for screening with porcine spleen extracts prepared as described above. […] Briefly, cells were collected from plates in PBS containing 5 mM EDTA, pelleted and resuspended at 5×10^6 cells/ml in DMEM-F12 medium. Cells were incubated with 5 μM Coelenterazine H (Molecular Probes) for 4 hours at room temperature. Cells were then washed in DMEM-F12 medium and resuspended at a concentration of 0.5×10^6 cells/ml. Cells were then mixed with test agonist peptides or plates containing tissue extracts and the light emission was recorded for 30 sec using a Microlumat luminometer (Perlin Elmer). Results are expressed as Relative Light Units (RLU).
(§1) The human coding sequences (accession numbers AC005946, M84562 and M60626, respectively) were amplified by PCR from human genomic DNA, cloned into the pcDNA3 (Invitrogen) and pEFIN3 (Euroscreen) vectors and sequenced. The pEFIN3 constructs were transfected, using Fugene 6, into CHO-K1 cells, expressing or not Gα16 and apoaequorin. G418-resistant clones were characterized for receptor expression by Northern blotting. […] Results were expressed as relative light units (RLU) or as the percentage of the response to 20 μM ATP.
The cAMP concentrations were determined using a homogeneous time-resolved fluorescence (HTRF) kit (Cis Bio International). Briefly, cells were detached, resuspended in Krebs Ringer Hepes buffer containing 1 mM 3-Isobutyl-1-methylxanthine, and submitted to 10 μM forskolin, alone or together with increasing concentrations of agonists for 30 min at room temperature. The reaction was stopped by the successive addition of cAMP-XL665 and anti-cAMP cryptate diluted in lysis buffer. The plates were incubated for 60 min at room temperature and read on a Rubystar fluorimeter (BMG). […] A calibration curve was obtained by plotting delta F % versus cAMP concentrations. […] The aequorin-based assay was performed with or without overnight pretreatment with 100 ng/ml Pertussis toxin. […] For FPRL2 polymorphism analysis, HEK cells were transiently transfected with empty and wild-type or Asp338H is FPRL2-containing pcdna vector using calcium phosphate method. Cells were recovered 48 hours later and used for FACS or cAMP experiments.

FPRL2 [2] = target: T1, FPRL2; experiment: Saturation and competition binding on FPRL2-expressing CHO-K1 cells, tracer F2L-[125I]Tyr; design: expressed in transfected cells; host or cells: CHO-K1; settings: for competition for FPRL2 binding: up to concentrations of 3 μM, data not shown
Description: FPRL2, FPRL1 and FPR-expressing CHO-K1 cells were plated in 24 wells plates (200,000 cells per well for FPRL2, and 100,000 cells per well for the two other receptors). The next day, the cells were washed twice with a KRH buffer containing 280 mM saccharose and, for FPRL1 and FPR, 0.1 % NaN3. […] Cells were washed twice with ice cold buffer, total radioactivity was recovered with 1 M […] and counted in a gamma counter for […]

FPR = target: T2, FPR (Homo sapiens, UniProt P21462, E346A/V101L); experiment: Aequorin-based assay on CHO-K1 cells expressing FPR; format: cell-based; settings: FPR expressed in CHO-K1 cells
T2 construct: expressed in transfected cells; host or cells: CHO-K1 (with or without Galpha16 and apoaequorin)
T2 sequence (P21462 1-350 V101L/E346A): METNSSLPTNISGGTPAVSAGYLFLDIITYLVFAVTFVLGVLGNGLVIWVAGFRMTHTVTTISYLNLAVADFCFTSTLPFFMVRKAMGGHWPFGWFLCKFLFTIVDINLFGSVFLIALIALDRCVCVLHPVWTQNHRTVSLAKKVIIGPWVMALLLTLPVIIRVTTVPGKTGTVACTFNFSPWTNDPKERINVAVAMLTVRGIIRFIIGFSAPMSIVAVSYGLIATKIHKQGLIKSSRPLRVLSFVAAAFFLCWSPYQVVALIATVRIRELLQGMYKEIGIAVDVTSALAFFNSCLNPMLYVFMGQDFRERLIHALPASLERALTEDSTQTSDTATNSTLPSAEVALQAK
Source text: as §1

FPRL1 [3] = target: T3, FPRL1 (Homo sapiens, UniProt P25090); experiment: Aequorin-based assay on CHO-K1 cells expressing FPRL1; format: cell-based; settings: FPRL1 expressed in CHO-K1 cells
T3 construct: expressed in transfected cells; host or cells: CHO-K1 (with or without Galpha16 and apoaequorin)
T3 sequence (P25090 1-351): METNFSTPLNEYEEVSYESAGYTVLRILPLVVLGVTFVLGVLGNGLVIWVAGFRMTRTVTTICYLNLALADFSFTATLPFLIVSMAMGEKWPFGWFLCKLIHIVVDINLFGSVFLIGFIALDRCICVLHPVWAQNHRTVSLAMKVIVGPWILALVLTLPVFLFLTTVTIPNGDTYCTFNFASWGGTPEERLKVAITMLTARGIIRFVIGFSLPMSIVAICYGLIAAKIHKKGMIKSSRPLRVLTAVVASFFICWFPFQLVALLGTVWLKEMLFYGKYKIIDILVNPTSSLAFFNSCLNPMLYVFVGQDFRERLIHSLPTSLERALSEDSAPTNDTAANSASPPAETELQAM
Source text: as §1

FPRL1 [4] = target: T3, FPRL1; experiment: Aequorine assay on human FPRL1 expressing cells (Example 9); format: cell-based; settings: data not shown
Description: (§2) Functional responses were analyzed by recording the luminescence of aequorine in human FPRL2 and FPRL1 expressing cells following the addition of agonists or purified monoclonal antibodies.
(§3) In brief, cells were collected from plates with PBS containing 5 mM EDTA, pelleted, resuspend at 5×10^6 cells/ml in DMEM/F-12 medium containing 0.1% bovine serum albumin, incubated with 5 μM coelenterazine H (molecular probes, Inc. Eugene, Oreg.) for 4 h at room temperature and diluted in DMEM/F-12 medium at a concentration of 5×10^5 cells/ml. Cells where then mixed in an 96 wells plate with the ligands or purified monoclonal antibodies. The light emission was recorded over 60 sec using a microlumat Luminometer (EG&G Berthold, microplate luminometer LB 96V).
(§4) Each data point is in duplicate. […] Human FPRL1 expressing cells were used as negative control to Mab. Functionality of these cells has been control with Humanin.

FPRL2 [5] = target: T1, FPRL2; experiment: Aequorine assay on human FPRL2 expressing cells (Example 9); format: cell-based; design: expressed in transfected cells; host or cells: CHO-K1 (with or without Galpha16 and apoaequorin); settings: peptides 2.5 μM to 0.4 nM, Mab 500 ug/ml to 5 ug/ml; FIG. 15
Description: as §2, §3, §4

Row | Molecule | competition for FPRL2 binding (FPRL2 [2]) | concentrations required to activate FPRL2 (calcium) (FPRL2 [1]) | concentrations active on FPR (FPR) | concentrations active on FPRL1 (FPRL1 [3]) | other results
1 | CSCC[C@H](NC=O)C(=O)N[C@@H](CC(C)C)C(=O)N[C@@H](Cc1ccccc1)C(=O)O [FMLP, formyl-methionine-leucyl-phenylalanine] | did not compete |  |  |  | activity on FPRL2 (FPRL2 [1]; FPRL2-expressing cells): inactive
2 | CSCC[C@H](NC(=O)[C@@H](NC(=O)[C@H](CCSC)NC(=O)[C@H](Cc1ccc(O)cc1)NC(=O)[C@H](CCCCN)NC(=O)[C@@H](N)Cc1c[nH]c2ccccc12)C(C)C)C(N)=O [WKYMVM] | did not compete | micromolar concentrations | low nanomolar concentrations | low nanomolar concentrations | 
3 | CSCC[C@H](NC(=O)[C@H](Cc1ccc(O)cc1)NC(=O)[C@H](CCCCN)NC(=O)[C@@H](N)Cc1c[nH]c2ccccc12)C(=O)N[C@H](C(=O)N[C@H](CCSC)C(N)=O)C(C)C [WKYMVm] | did not compete | micromolar concentrations | low nanomolar concentrations | low nanomolar concentrations | 
4 | Humanin: Humanin (HN(N)) peptide (Phoenix Pharmaceuticals), disclosed as a ligand for FPRL2 and FPRL1 [reference compound] |  |  |  |  | activation of human FPRL1 expressing cells (FPRL1 [4]): activates; activation of human FPRL2 expressing cells (FPRL2 [5]): activates
5 | NSLFGSVETWPWQVL [F2L[7-21], truncated F2L variant lacking the first six aminoacids] |  |  |  |  | activity in aequorin assay (FPRL2 [1]; FIG. 11H): totally inactive; activity in binding assay (FPRL2 [2]; not shown): totally inactive
6 | Pertussis toxin |  |  |  |  | effect of pretreatment on F2L calcium signaling (FPRL2 [1]; 100 ng/ml overnight pretreatment, FIG. 11G): totally inhibited
